{
  "source": "patent US7342026B2",
  "about": "“Substituted quinolines for the treatment of protozoa and retrovirus co-infections” (priority 2001, dated 2008)",
  "key": {"CEM4fx cells": {"test_system": "CEM4fx cells", "assay": "Cytotoxicity with respect to host CEM4fx cells (MTT bioconversion assay)", "type": "cell-based", "experimental": "(§1) Moreover, the cytotoxicity of the quinolines with respect to the host cells is measured by an MTT [3-(4,5-dimethylthiazol-2-yl)-2,5-diphenyltetrazolium bromide]bioconversion assay. All the assays are carried out in triplicate."}, "[1]": {"test_system": "amastigotes of Leishmania amazonensis", "assay": "Amastigotes of Leishmania amazonensis in infected macrophages (leishmanicidal activity)", "type": "cell-based", "conditions": "100% inhibitory concentration, intracellular amastigotes in BALB/c macrophages, 30 hours after addition", "quoted_text": "The strain of Leishmania amazonensis is maintained by successive passages in “nude” mice (nu/nu). The amastigotes are isolated from the lesions developed on the footpads, and purified according to the method described by Antoine et al. (Parasitology, 1989, 99: 1).\nThe leishmanicidal activity of the quinolines is determined 30 hours after addition of the solutions of substituted quinolines. It is based on a more or less large, or even complete, decrease, firstly, in the size of the parasitophorous vacuoles and, secondly, in the number of live intracellular amastigotes."}, "[2]": {"test_system": "HIV-1 (molecular clone pLN4-3)", "assay": "microbe, parasite or virus in culture", "type": "cell-based, human immunodeficiency virus (HIV-1)", "conditions": "read-out: Antiretroviral activity IC50", "description": "e) Tests on the Replication of HIV-1\nCEM4fx cells are infected de novo with the molecular clone pLN4-3 of HIV-1, and simultaneously treated with the substituted quinolines to be tested, dissolved beforehand in DMSO. The virus multiplies for three days, and then the presence of infectious virions is detected in the culture supernatant (RPMI medium) by reinfecting “P4” cells which have a reporter gene which is expressed when they are infected with the virus. The viral load is quantified after culturing for 72 hours, by two methods: estimation of the viral load by infection of HeLa-βgal CD4^+ cells and determination of the amount of viral protein p24 by an ELISA assay."}, "[3]": {"test_system": "circulating forms of Trypanosoma brucei (S427 strain)", "assay": "microbe, parasite or virus in culture", "type": "cell-based", "conditions": "read-out: T. brucei IC50", "quoted_text": "d) Tests on the Circulating Forms of Trypanosoma brucei\nThe circulating forms of Trypanosoma brucei are cultured in MEM medium (minimum essential medium; GIBCO-BRL, No. 072-1100) to which Earle's salts have been added and supplemented with 1 mg/ml of glucose, 2.2 mg/ml of NaHCO3, 10 mM of Hepes, 2 mM of sodium pyruvate, 0.2 mM of 2-mercaptoethanol, 0.1 mM of hypoxanthine and 15% of inactivated horse serum.\nThe cultures are maintained at 37° C. in 24-well plates in a humid atmosphere (5% CO2-95% air) and the passages are carried out every 2 or 3 days at a density of 10^3 to 10^5 trypomastigotes per ml. The activity of the substituted quinolines is tested in triplicate in 96-well plates in which 10^3 parasites originating from an exponential growth phase are distributed per well, in the presence of the various solutions of substituted quinolines in a final volume of 200 μl. After culturing for 48 hours, the trypanocidal activity is assessed by counting, with a Neubauer cell, the number of live parasites per well."}, "macrophages": {"test_system": "macrophages", "assay": "Cytotoxicity on macrophages", "type": "cell-based, BALB/c mice", "experimental": "The macrophages, which will be used as host cells for the leishmania, are obtained after multiplication and differentiation of medullary precursors from BALB/c mice. This culture is prepared in the presence of supernatant from a conditioned line of fibroblasts L-929, and source of “Macrophage Colony Stimulating Factor”. After culturing for 5 days on a hydrophobic support, the adherent macrophages are recovered and then distributed in flat-bottomed 96-well plates for cell culture, in a proportion of 4×10^4 macrophages per well. The macrophages are then infected with purified amastigotes (4 parasites per macrophage) and incubated at 34° C. for 24 hours to allow development of parasitophorous vacuoles and multiplication of parasites. Under these conditions, more than 95% of the macrophages are infected.\nThe solutions of the substituted quinolines to be tested are prepared in DMSO before being added, at various concentrations, to the infected macrophage cultures.\nThe results obtained with the substituted quinolines, assigned Nos. 1, 2, 4, 6 to 11, 13 to 20, 23 to 34, 37 and 38 in Table I, are given in Table II below as regards their activity on the amastigotes of Leishmania amazonensis, of Leishmania donovani and of Leishmania infantum, and also their cytotoxicity with respect to the macrophages."}, "[4]": {"test_system": "amastigotes of Trypanosoma cruzi (Tulahuen strain)", "assay": "Amastigotes of Trypanosoma cruzi in peritoneal macrophages", "type": "cell-based", "conditions": "read-out: T. cruzi (amastigotes) IC50", "quoted_text": "c) Tests on Amastigotes of Trypanosoma cruzi\nPeritoneal macrophages from Balb/c mice are collected, washed in Dulbecco PBS and then distributed in 96-well plates in a proportion of 3×10^4 cells per 100 μl and per well, in RPMI-1640 medium supplemented with 10% FCS and antibiotics.\nAfter 24 hours at 37° C., 10^5 trypomastigotes are added with serial 2-fold dilutions of the various substituted quinolines. The cultures are then incubated at 37° C. for 4 days in a humid atmosphere (5% CO2-95% air). After fixing, and then staining with Giemsa, the antiparasitic activity is assessed by counting the extracellular trypomastigotes and the intracellular amastigotes."}, "[5]": {"test_system": "amastigotes of Leishmania donovani (MHOM/ET/67/L82)", "assay": "microbe, parasite or virus in culture", "type": "cell-based", "conditions": "amastigotes in Balb/c peritoneal macrophages, 48 hours", "description": "(§2) b) Tests on Amastigotes of Leishmania donovani and Leishmania infantum\n(§3) The Leishmania donovani and Leishmania infantum strains are maintained by successive passages in golden hamsters. The amastigotes are isolated from the spleens of the infected hamsters and brought into contact with the purified macrophages.\n(§4) Twenty-four hours after intraperitoneal injection of Balb/c mice with a 2% starch solution, the peritoneal macrophages of these mice are collected, washed in Dulbecco PBS and then distributed in Lab-tek® culture chambers, in a proportion of 4×10^4 cells per 100 μl per well in RPMI-1640 medium supplemented with 10% of FCS and antibiotics. After 24 hours at 37° C. in a humid atmosphere (5% CO2), the macrophages are brought into contact with purified amastigotes (3 parasites per macrophage) in a final volume of 200 μl for 4 hours. The medium is then removed in order to eliminate the extracellular parasites, and replaced with 100 μl of fresh medium.\n(§5) Twenty-four hours after the beginning of infection, the solutions of substituted quinolines prepared as described in paragraph a) above are added and the leishmanicidal activity is determined after 48 hours by counting the number of parasites still alive in the fixed and Giemsa-stained cells."}, "[6]": {"test_system": "amastigotes of Leishmania infantum (IPZ229/1/89)", "assay": "microbe, parasite or virus in culture", "type": "cell-based", "conditions": "amastigotes in Balb/c peritoneal macrophages, 48 hours", "description": "as §2, §3, §4, §5"}, "[7]": {"assay": "Cytotoxicity with respect to host CEM4fx cells (MTT bioconversion assay)", "type": "cell-based", "conditions": "human, CEM4fx cells (host cells)", "experimental": "as §1"}, "[8]": {"test_system": "Leishmania infantum (MHOM/FR/91/LEM2259V)", "assay": "Balb/c mice infected with visceral leishmaniasis (Leishmania infantum)", "type": "in vivo", "conditions": "10 days, quinolines oral 25 mg/kg/day, Glucantime subcutaneous 100 mg/kg/day", "experimental": "b) Tests Carried on Laboratory Animals Infected with Visceral Leishmaniasis (Leishmania infantum): 1/Laboratory Animals and Parasites\nThe Balb/c mice were infected with Leishmania infantum parasites at the promastigote stage (reference: MHOM/FR/91/LEM2259V), a strain isolated from a patient carrying AIDS. This strain is maintained in Schneider's drosophila culture medium (Gibco, USA) supplemented with 20% of fetal calf serum. The infectious promastigotes are cultured for 7 days and then counted. Each mouse is then infected intravenously with 0.2 ml of culture medium containing 10^7 promastigotes.\nCounting of amastigotes forms in the liver and spleen.\nAfter the treatments have been stopped and the animals sacrificed, the viscera, liver and spleen are weighed and collected in a Petri dish. Each organ is mounted several times on a degreased glass slide which, fixed and stained by the May-Grünwald-Giemsa technique, makes it possible to determine the number of amastigote forms per 500 nucleated cells.\nThe results are expressed in Table VI."}, "[9]": {"conditions": "HIV-1 replication in CEM4fx cells, 72 hours"}, "[10]": {"conditions": "Balb/c peritoneal macrophages, 4 days"}},
  "note": "Where two headings read alike, the source gives them in different places.",
  "data": [
    {"molecule": "CCCCCc1ccc2ccccc2n1", "note": "[Quinoline 20]", "values": [
      {"measurement": "IC50", "setting": "CEM4fx cells", "value": 9, "unit": "µM"},
      {"measurement": "L. amazonensis IC100", "setting": "[1]", "value": ">50", "unit": "µg/mL"},
      {"measurement": "IC50", "setting": "[2]; [9]", "value": 2, "unit": "µM"},
      {"measurement": "IC50", "setting": "[3]; circulating forms, culturing for 48 hours", "value": 13, "unit": "µM"},
      {"measurement": "Cytotoxicity on macrophages", "setting": "macrophages; macrophages from BALB/c mice", "value": ">100", "unit": "µg/mL"},
      {"measurement": "IC50", "setting": "[4]; [10]", "value": 19, "unit": "µM"}
    ]},
    {"molecule": "C[Si](C)(C)C#Cc1ccc2ccccc2n1", "note": "[Quinoline 26]", "values": [
      {"measurement": "L. donovani IC50", "setting": "[5]", "value": 1.7, "unit": "µg/mL"},
      {"measurement": "L. infantum (IPZ229/1/89) IC50", "setting": "[6]", "value": 10.9, "unit": "µg/mL"},
      {"measurement": "IC50", "setting": "CEM4fx cells", "value": 3, "unit": "µM"},
      {"measurement": "L. amazonensis IC100", "setting": "[1]; listed as 26", "value": 12.5, "unit": "µg/mL"},
      {"measurement": "IC50", "setting": "[2]; [9]", "value": 0.9, "unit": "µM"},
      {"measurement": "Cytotoxicity on macrophages", "setting": "macrophages; macrophages from BALB/c mice", "value": 1.56, "unit": "µg/mL"},
      {"measurement": "IC50", "setting": "[4]; [10]", "value": 8, "unit": "µM"}
    ]},
    {"molecule": "O=CC=Cc1ccc2ccccc2n1", "note": "[Quinoline 9, 3-(2-quinolyl)propenal]", "values": [
      {"measurement": "IC50", "setting": "[7]", "value": 2, "unit": "µM"},
      {"measurement": "L. amazonensis IC100", "setting": "[1]", "value": 0.781, "unit": "µg/mL"},
      {"measurement": "IC50", "setting": "[2]; Human immunodeficiency virus 1, 72 h", "value": 0.6, "unit": "µM"},
      {"measurement": "IC50", "setting": "[3]; Trypanosoma brucei, 48 h", "value": 19, "unit": "µM"},
      {"measurement": "Number of parasites in the liver per gram", "setting": "[8]; n=8", "value": "3.8 × 10^6 a, e per gram"},
      {"measurement": "Number of parasites in the spleen per gram", "setting": "[8]; n=8", "value": "2.2 × 10^6 b per gram"},
      {"measurement": "% reduction in the number of parasites in the liver", "setting": "[8]; versus without treatment", "value": "−91.6", "unit": "%"},
      {"measurement": "% reduction in the number of parasites in the spleen", "setting": "[8]; versus without treatment", "value": "−47.6", "unit": "%"},
      {"measurement": "Cytotoxicity on macrophages", "setting": "macrophages; BALB/c, mouse", "value": 1.56, "unit": "µg/mL"},
      {"measurement": "IC50", "setting": "[4]; Trypanosoma cruzi, TULAHUEN, Peritoneal macrophage, in Mus musculus, 96 h", "value": 5, "unit": "µM"}
    ]}
  ]
}
